# According to US20220280507A1, “USES OF 5-METHYLTETRAHYDROFOLATE AND ITS COMPOSITION” (Lianyungang Jinkang Hexin Pharmaceutical Co., Ltd., priority 2019, published 2022):
# Where two headings read alike, the source gives them in different places.
# Columns and labels:
# [1] = tested on: alcoholic steatohepatitis; details: 4 mg·Kg−1 daily
# Method: Experiment 12 Effect of 5-Methyltetrahydrofolate on Intestine Induced by Chronic Alcohol
# 96 SPF-grade SD rats, half female and half male, were chosen with an average weight of 176-220 g at the beginning of the experiment, and randomly divided into vehicle control group (glucose, 10 g·Kg−1) and model control group (liquor, 6 g·Kg−1), 5-methyltetrahydrofolate calcium group (folic acid, 4 mg·Kg−1, glucose, 10 g·Kg−1), half female and half, 16 rats in each group. […] The day on which the dose of alcohol reached 6g·Kg−1 was defined as the first day of modeling. The intestinal permeability of rats was measured at Weeks 2 and 8, then 5 rats were sacrificed at random, blood and liver tissues were taken.
# 8 weeks later, rats in the remaining groups received fecal microbiota transplantation from patients with alcoholic steatohepatitis, and were sacrificed at Week 10, then blood and liver tissues were taken.
# 60 g of stools were collected from patients with alcoholic steatohepatitis, mixed with 300 mL of normal saline and filtered, and the bacteria solution was stored in an anaerobic bag at 4° C. for later use. After 8 weeks, the remaining rats in all groups were anesthetized with ether, and catheter was used to slowly inject the bacteria solution (2 mL) into their colon, and the rats continued to be fed with the same doses the next day. At Week 10, all rats were sacrificed, liver tissues were stained with H&E and sectioned for disease assessment. At least three different sections of each rat were studied to reasonably assess liver lesions. In order to reasonably assess fatty degeneration, necrosis, inflammation, and fibrosis of liver, liver lesions were graded into different degrees. The proportion of fatty liver cells was <50%, 50-75% and >75%, respectively, corresponding to the severity of fatty degeneration. Focal necrosis was also quantified (number of necrotic foci/mm2), and dense inflammatory infiltrates were also graded. Alcoholic steatohepatitis (ASH) is defined as the presence of inflammatory cell infiltration, spot necrosis and stem cell necrosis in the liver.
# [2] = tested on: IL-1β; experiment: LPS-induced inflammatory response in astrocytes, IL-1β release (ELISA); assay type: cell-based, Kunming mice; details: culture supernatant, LPS 1 μg·ml-1 + substance 10 μg·ml-1, 24 h, n=6
# Description: Experiment 9 Inhibition of 5-Methyltetrahydrofolate and Curcumin on LPS-Induced Inflammatory Response in Astrocytes
# The cerebral cortex of Kunming mice at 1˜2 d was taken out under aseptic conditions, washed 3 times with cold PBS after removing residual meninges and blood vessels, prepared into single cell suspension by blowing, centrifuged, the supernatant was discarded, and the precipitant was resuspended in AST basic medium (high-sugar DMEM containing 10% FBS). The suspension was inoculated into a culture flask coated with poly-L-lysine (0.1 mg/ml), and cultured in a CO2 incubator. After 24 h, tissue debris and non-adherent cells were removed by replacing the medium. Afterwards, the medium was replaced every 3 days until the cells reached 80% confluence, then the flask was placed on a constant temperature rotary shaker, where the suspension was centrifuged at 180 r/min, 37° C. for 18 h to remove oligodendrocytes and microglia from the upper layer. Then trypsin digestion was used for subculture. […]
# LPS (1 μg·ml-1), LPS (1 μg·ml-1)+curcumin (10 μg·ml-1), LPS (1 μg·ml-1)+5-MTHF-Ca (10 μg·ml-1); experimental group: LPS (1 μg·ml-1)+curcumin (5 μg·ml-1)+5-MTHF-Ca (5 μg·ml-1). After 24 h, the culture supernatant was collected, and the cytokines IL-6, IL-1β and TNF-α were detected by ELISA.
# [3] = Week 10 after fecal microbiota transplantation, n = 6
compound,measurement,setting,value
"CN1c2c([nH]c(N)nc2=O)NCC1CNc1ccc(C(=O)N[C@@H](CCC(=O)O)C(=O)O)cc1 (stereo partly drawn) [5-methyltetrahydrofolate, N-[4-[[(2-amino-1,4,5,6,7,8-hexahydro-4-oxo-5-methyl-(6S), -(6R), and (6R,S)-pteridyl)methyl)amino)toluoyl-glutamic acid]","Case percentage: fatty degeneration, percentage of fatty liver cells 50-75%","[1]; Week 8, n = 5",20%
same,"Case percentage: fatty degeneration, percentage of fatty liver cells < 50%","[1]; Week 8, n = 5",80%
same,"Case percentage: fatty degeneration, percentage of fatty liver cells > 75%","[1]; Week 8, n = 5",0%
same,Case percentage: inflammatory foci 1-4 pcs/mm^2,"[1]; Week 8, n = 5",0%
same,Case percentage: inflammatory foci <1 pc/mm^2,"[1]; Week 8, n = 5",100%
same,Case percentage: inflammatory foci >4 pcs/mm^2,"[1]; Week 8, n = 5",0%
same,Case percentage: liver fibrosis,"[1]; Week 8, n = 5",0%
same,Case percentage: necrosis foci 1-3 pcs/mm^2,"[1]; Week 8, n = 5",0%
same,Case percentage: necrosis foci <1 pc/mm^2,"[1]; Week 8, n = 5",100%
same,Case percentage: necrosis foci >3 pcs/mm^2,"[1]; Week 8, n = 5",0%
same,"Case percentage: fatty degeneration, percentage of fatty liver cells 50-75%",[1]; [3],33.3%
same,"Case percentage: fatty degeneration, percentage of fatty liver cells < 50%",[1]; [3],66.7%
same,"Case percentage: fatty degeneration, percentage of fatty liver cells > 75%",[1]; [3],0%
same,Case percentage: inflammatory foci 1-4 pcs/mm^2,[1]; [3],0%
same,Case percentage: inflammatory foci <1 pc/mm^2,[1]; [3],100%
same,Case percentage: inflammatory foci >4 pcs/mm^2,[1]; [3],0%
same,Case percentage: liver fibrosis,[1]; [3],0%
same,Case percentage: necrosis foci 1-3 pcs/mm^2,[1]; [3],0%
same,Case percentage: necrosis foci <1 pc/mm^2,[1]; [3],100%
same,Case percentage: necrosis foci >3 pcs/mm^2,[1]; [3],0%
5-methyltetrahydrofolate calcium,IL-1β,[2],721.45 ± 8.79 pg/mL
